The species entered for series [1] is Danio rerio. Put plainly: Lipid lowering activity in zebrafish embryos by Nile red fat metabolism assay. It counts as functional, organism-based.
For series [2], the species on record is Danio rerio. The experiment in a line: Toxicity in zebra fish larvae at 5 uM after 48 hrs. The series is classed as organism-based. Conditions: zebrafish, in vivo.
Series [3] deals with 3T3-L1. The experiment in a line: Cytotoxicity against mouse 3T3L1 cells at 50 uM after 24 hrs by sulforhodamine B assay. It counts as cell-based. Conditions: 3t3-l1, 24 h. Background: In SRB staining, fixed cells bind dye roughly in proportion to their protein.
Series [4] deals with 3T3-L1. The experiment in a line: Cytotoxicity against mouse 3T3L1 cells at 50 uM after 48 hrs by sulforhodamine B assay. It counts as cell-based. Conditions: 3t3-l1, 48 h.
The species named for series [5] is Danio rerio. Put plainly: Lipid lowering activity in zebrafish embryos at 5 uM by Nile red fat metabolism assay. It counts as functional, organism-based.

Calls of active or inactive are those of the source. The calls are words filed in the database; no cut-off is given here.

The EC50 is the concentration giving half of the maximal effect. Higher therefore signals lower potency in that assay.

In the case of `COc1ccc2c(=O)c3ccccc3oc2c1OC`, in the series listed under Danio rerio [1], the EC50 was determined as 0.36 µM. For the same compound, the Activity in the series filed under Danio rerio [2], in the series on 3T3-L1 [3] and in the series with 3T3-L1 [4] was 0 to 25% throughout. Further, the outcome in the series filed under Danio rerio [5] was Active.

`COc1ccc2c(=O)c3ccccc3oc2c1O`: the response in the series listed under Danio rerio [1] was half-maximal at 0.48 µM (EC50). The Activity in the series filed under Danio rerio [2], in the series on 3T3-L1 [3] and in the series on 3T3-L1 [4] was 0 to 25% in each case. Further, the outcome in the series listed under Danio rerio [5] was Active.

For the compound `COc1cccc2oc3ccccc3c(=O)c12`, in the series listed under Danio rerio [1], the EC50 amounted to 0.79 µM. For the same compound, the Activity in the series listed under Danio rerio [2], with 3T3-L1 [3] and in the series with 3T3-L1 [4] was 0 to 25% throughout. Moreover, the result in the series listed under Danio rerio [5] was Active.

In the series filed under Danio rerio [1], `CC1(C)C=Cc2c(cc3c(=O)c4ccccc4oc3c2O)O1` showed an EC50 of 0.56 µM. The Activity in the series listed under Danio rerio [2], with 3T3-L1 [3] and in the series with 3T3-L1 [4] was 0 to 25% in each case. Besides, the outcome in the series listed under Danio rerio [5] was Active.

Compound `CC1(C)C=Cc2cc(O)c3c(=O)c4ccccc4oc3c2O1` returned an EC50 in the series filed under Danio rerio [1] of 0.29 µM. For the same compound, the Activity in the series listed under Danio rerio [2], in the series on 3T3-L1 [3] and in the series with 3T3-L1 [4] was 0 to 25% in each case. The result in the series listed under Danio rerio [5] was Active.

Regarding `COc1c2c(cc3c(=O)c4cc(C)ccc4oc13)CCC(C)(C)O2`, the EC50 in the series filed under Danio rerio [1] is 0.42 µM. Further, the Activity lay in the range of 0 to 25% in the series listed under Danio rerio [2], 0 to 50% in the series with 3T3-L1 [3] and 0 to 25% with 3T3-L1 [4]. For the same compound, the result in the series filed under Danio rerio [5] was Active.

In turn, `O=c1c2ccccc2oc2cc(O)c(O)cc12` yielded an EC50 in the series filed under Danio rerio [1] of 0.98 µM. In addition, the Activity in the series filed under Danio rerio [2], in the series on 3T3-L1 [3] and with 3T3-L1 [4] was 0 to 25% in each case. The result in the series listed under Danio rerio [5] was Active.

In the case of `O=c1c2ccccc2oc2ccc(O)cc12`, in the series listed under Danio rerio [1], the concentration giving a half-maximal response (EC50) was determined as 0.76 µM. The Activity in the series listed under Danio rerio [2], in the series on 3T3-L1 [3] and in the series on 3T3-L1 [4] was 0 to 25% each time. Further, in the series filed under Danio rerio [5], the outcome was Active.

In turn, `O=c1c2ccccc2oc2cccc(O)c12` gave an EC50 in the series filed under Danio rerio [1] of 0.62 µM. Besides, the Activity in the series filed under Danio rerio [2], with 3T3-L1 [3] and in the series with 3T3-L1 [4] was 0 to 25% throughout. Further, the result in the series listed under Danio rerio [5] was Active.

Compound `COc1c2c(cc3c(=O)c4cc(Cl)ccc4oc13)OC(C)(C)CC2` came in with an EC50 in the series listed under Danio rerio [1] of 0.86 µM. Further, the Activity in the series listed under Danio rerio [2], in the series with 3T3-L1 [3] and in the series on 3T3-L1 [4] was 0 to 25% in each case. Besides, the result in the series listed under Danio rerio [5] was Active.

Regarding `COc1ccc2oc3ccccc3c(=O)c2c1OC`, in the series filed under Danio rerio [1], the EC50 stood at 0.62 µM. Besides, the Activity in the series filed under Danio rerio [2], in the series on 3T3-L1 [3] and in the series with 3T3-L1 [4] was 0 to 25% throughout. In the series listed under Danio rerio [5], the result was Active.

The compound `CC1(C)C=Cc2cc3c(=O)c4ccccc4oc3c(O)c2O1` had an EC50 in the series filed under Danio rerio [1] of 1.44 µM. For the same compound, the Activity in the series listed under Danio rerio [2], in the series on 3T3-L1 [3] and in the series with 3T3-L1 [4] was 0 to 25% throughout. Also, in the series listed under Danio rerio [5], the outcome was Active.

Take `O=c1c2ccccc2sc2c(O)ccc(Cl)c12`: the Activity in the series filed under Danio rerio [2] was in the range of 0 to 25%; in the series on 3T3-L1 [3], 0 to 25%; in the series on 3T3-L1 [4] it was 51 to 75%. For the same compound, the result in the series filed under Danio rerio [5] was Active.

`COc1ccc2c(=O)c3cc(C(=O)N[C@@H](CO)c4ccccc4)ccc3oc2c1`: the Activity in the series filed under Danio rerio [2], with 3T3-L1 [3] and in the series with 3T3-L1 [4] was 0 to 25% in each case. The outcome in the series filed under Danio rerio [5] was Active.

Take `COc1cc2c(c3oc4ccccc4c(=O)c13)OC(C)(C)CC2`: a half-maximal response in the series filed under Danio rerio [1] (EC50) required 0.73 µM. Besides, the Activity in the series filed under Danio rerio [2], in the series with 3T3-L1 [3] and in the series on 3T3-L1 [4] was 0 to 25% in each case. Moreover, the outcome in the series filed under Danio rerio [5] was Active.

`C#CCOc1ccc(/C=C/C(=O)/C=C/c2ccc(OCC#C)c(OC)c2)cc1OC`: the Activity in the series filed under Danio rerio [2] fell in the range of 0 to 25%; in the series with 3T3-L1 [3] it was 26 to 50%; in the series on 3T3-L1 [4], 0 to 25%. In the series filed under Danio rerio [5], the result was Active.
